Data: patent US6579989B1, “Sulphostin analogue and process for producing sulphostin and its analogue” (Zaidan Hojin Biseibutsu Kagaku Kenkyu Kai, priority 1999, dated 2003)

Molecular target: T1, dipeptidylpeptidase IV (Rattus norvegicus, UniProt P14740)
T1 construct: partially purified through ammonium sulfate fractionation of a homogenate obtained from a kidney of a rat; from tissue; host or cells: rat kidney homogenate
Test: Measurement of dipeptidylpeptidase IV inhibiting activity (glycyl prolyl β-naphthylamide substrate, absorbance at 525 nm)
Assay type: biochemical
Conditions: IC50 (dipeptidylpeptidase IV inhibition activity), enzyme partially purified from rat kidney homogenate; pH 7.2, 37° C., 1 hour
Description: Measurement of Dipeptidylpeptidase IV Inhibiting Activity
Water was added to a mixture of 0.025 ml of 3.2 mM glycyl prolyl β-naphthylamide (BACHEM, Switzerland), 0.1 ml of 0.1 M tris-maleic acid buffer solution (pH 7.2) and a compound shown in Table 1, so that a final volume was adjusted to 0.2 ml. The resulting mixed solution was warmed at 37° C. for 10 minutes, and 0.025 ml of a dipeptidylpeptidase IV solution partially purified through ammonium sulfate fractionation of a homogenate obtained from a kidney of a rat was added thereto. Then, the reaction was continued at 37° C. for 1 hour. […] At the same time, a blank test was conducted to measure absorbance (b) of the buffer solution containing no specimen. A dipeptidylpeptidase IV inhibition percent was calculated from the expression: [(b−a)/b]×100.

T1 sequence (P14740 whole entry): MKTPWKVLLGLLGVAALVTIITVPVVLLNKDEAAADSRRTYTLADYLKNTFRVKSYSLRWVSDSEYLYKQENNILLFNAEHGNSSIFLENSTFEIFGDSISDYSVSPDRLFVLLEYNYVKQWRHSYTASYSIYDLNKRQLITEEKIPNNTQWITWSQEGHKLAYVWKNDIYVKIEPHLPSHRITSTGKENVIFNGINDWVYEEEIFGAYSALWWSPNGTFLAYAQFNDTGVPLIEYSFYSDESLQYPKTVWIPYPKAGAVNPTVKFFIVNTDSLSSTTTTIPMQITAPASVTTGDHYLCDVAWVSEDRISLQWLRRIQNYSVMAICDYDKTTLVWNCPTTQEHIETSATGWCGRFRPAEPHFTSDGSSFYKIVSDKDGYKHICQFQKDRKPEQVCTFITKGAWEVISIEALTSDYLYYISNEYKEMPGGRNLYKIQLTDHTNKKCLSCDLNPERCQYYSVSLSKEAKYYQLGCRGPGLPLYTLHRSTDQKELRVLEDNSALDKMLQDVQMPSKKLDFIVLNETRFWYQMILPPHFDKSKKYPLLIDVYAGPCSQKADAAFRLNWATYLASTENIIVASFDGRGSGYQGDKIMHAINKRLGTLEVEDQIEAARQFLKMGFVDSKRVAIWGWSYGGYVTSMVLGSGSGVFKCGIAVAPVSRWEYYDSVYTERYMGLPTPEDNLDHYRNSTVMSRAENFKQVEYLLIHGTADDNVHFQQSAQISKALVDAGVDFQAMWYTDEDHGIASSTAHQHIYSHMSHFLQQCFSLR

SMILES: N[C@H]1CCN(P(N)(=O)NS(=O)(=O)O)C1=O (single isomer, unassigned) [Compound 21, 3(S)-Amino-1-((R*)-amino(sulfoamino)phosphinyl)-2-pyrrolidone]
- IC50: 15.1 nM

SMILES: N[C@H]1CCN(P(N)(=O)NS(=O)(=O)O)C1=O (single isomer, unassigned) [Compound 20, 3(S)-Amino-1-((S*)-amino(sulfoamino)phosphinyl)-2-pyrrolidone]
- IC50: 1820 nM
